Structures can show the parent of a compound that is named as a salt.

The test system of assay [1] is Paper wasps (mainly Polistes dominulus, plus a few of P. aurifer). Description: Field trapping, Rescue W•H•Y traps baited with attractant AA/2MB: captures of paper wasps. It counts as in vivo. The following applies: N 9. The procedure: (§1) Eleven field trapping experiments were carried out from late August to mid-October 2009 in residential and woody areas around Spokane, Wash., USA, mostly using the trap known by the designation Rescue® W•H•Y (except on one occasion that Rescue® Reusable Yellowjacket Traps were used for a natural food attractant; see below for details). The commercial W•H•Y trap has a top chamber and a bottom chamber and is described in U.S. Patent Application Publication No. 2009/0151228. The top chamber is baited with two attractants—one of which is a solid contained in a vial (2-methyl-1-butanol), and the other is a liquid mixed with water (acetic acid). The bottom chamber is baited with a liquid attractant (heptyl butyrate) poured onto a cotton pad. Separation of the two types of attractants (otherwise antagonistic to each other when released from the same chamber) in two chambers creates two focal attraction sources from one trap for different species of wasps, hornets, and yellowjackets. […] In a special occasion, the commercial Rescue® Reusable Yellowjacket Traps were each baited with 10 g of chopped bacon (loaded into a cartridge) as a natural protein food attractant. Traps were hung 1.5-2.0 m above the ground on either fences or tree branches ca. 5 m apart between each trap and at least 15 m between sets. For each trapping experiment, three sets of traps (i.e., three physical replicates of each treatment) were deployed with their initial trap positions within each set being randomized. To minimize positional effects and obtain more replications, wasp collections and trap re-randomization were carried out when 5-10 wasps were caught in the best traps. Each replicate lasted several days depending on wasp flight activity. Captured wasps were removed from the traps and kept in the zip-bags before returning to the laboratory for recording of the species, gender status, and catch. Repellent candidates (individuals or mixtures) were released from polyethylene bags (3×5 cm; with a fabric felt) with various thicknesses from 2-12 mil (see release rates listed in tables); they were employed inside the same trap chamber as the attractant.
(§2) Experiment 1 tested five individual essential oils (pennyroyal, lemongrass, peppermint, clove, and citronella) and two known mosquito repellents (i.e., major components of catnip oil), E/Z-nepetalactone and Z/E-nepetalactone plus a blank control against a mixture of attractant [acetic acid (AA) and 2-methyl-1-butanol (2 MB)] using the W•H•Y traps (both attractant and repellent candidates were released from the top chamber) from for eight consecutive days from August to early September. Experiment 2 tested nine individual essential oils (ylang ylang, vetiver, myrrh, patchouli, geranium, eucalyptus, camphor, spearmint, and wintergreen) plus a blank control against a mixture of attractant (AA+2 MB) using the W•H•Y traps (both attractant and repellent candidates were released from the top chamber) for eight consecutive days from late August to early September. Experiment 3 tested seven individual essential oils (Roman chamomile, sage, fennel seed, rosemary, thyme, anise, and lavender) plus a blank control against a mixture of attractant (AA+2 MB) using the W•H•Y traps (both attractant and repellent candidates were released from the top chamber) for eight consecutive days from late August to early September. Experiment 4 tested two essential oil mixtures (3EO-mix: clove, geranium, and lemongrass in ca. 1:1:1 ratio; and 4EO-mix: clove, geranium, lemongrass, and rosemary in ca. 1:1:1:1 ratio) plus a blank control against a mixture of attractant (AA+2 MB) using the W•H•Y traps (both attractant and repellent candidates were released from the top chamber) for 13 consecutive days in September; the essential oil mixtures alone without attractant were tested in the same experiment.

For assay [2], the system named is worker antennae of Vespula pensylvanica, Dolichovespula maculata, Polistes dominulus, and P. aurifer. The assay is described as follows: GC-EAD/MS analysis of SPME headspace samples of essential oils: antennal responses. The following applies: for antennal (EAD) response to component of geranium oil: V. pensylvanica, D. maculata, P. dominulus, or P. aurifer antennae; for antennal (EAD) response to component of rosemary oil: V. pensylvanica and D. maculata antennae, FIG. 3. The procedure: Headspace volatiles from greater than 10 types of essential oils (1 ml each in a closed 20 ml glass vial) were sampled via Solid-Phase Micro-Extraction (SPME) (CAR/PDMS, 85 μm, Supelco, Bellefonte, Pa.) for 20-30 sec before GC-EAD and GC-MS analyses.
Paper wasp [European paper wasp (Polistes dominulus) or golden paper wasp (P. aurifer)] and yellowjacket [Western yellowjacket (Vespula pensylvanica) or Bald-faced hornet (Dolichovespula maculata)] workers for electrophysiological study were collected from their nests and kept alive at 4° C. before testing.
SPME samples of the various essential oils were injected splitless into a Varian CP-3800 GC equipped with a polar column (HP-INNOWAX; 30 m×0.53 mm×1.0 μm film thickness; Agilent Technologies, Wilmington, Del., USA) and a 1:1 effluent splitter that allowed simultaneous flame ionization detection (FID) and electroantennographic detection (EAD) of either a yellowjacket or paper wasp worker antenna to the separated volatile compounds. Helium was used as the carrier gas, and the injector and detector temperatures were 250° C. and 300° C., respectively. Column temperature was 50° C. for 1 min, rising to 240° C. at 10° C./min, and then held for 10 min. The outlet for the EAD was held in a humidified air stream flowing at 0.5 m/sec over the antennal preparation. EAD recordings were made using silver wire-glass capillary electrodes filled with Beadle-Ephrussi Ringer on freshly cut antennae. The antennal signals were stored and analyzed on a PC equipped with a serial IDAC interface box and the program EAD ver. 2.5 (Syntech, Hilversum, The Netherlands).
Compounds were identified by comparison of retention times with those of authentic standards and with mass spectra of standards.

For assay [3], the system named is Yellowjackets (mainly Vespula pensylvanica (ca. 90%), plus V. vulgaris, V. germanica, and Dolichovespula maculata). The assay is described as follows: Field trapping, Rescue W•H•Y traps baited with attractant AA/2MB: captures of yellowjackets. It counts as in vivo. The note with it: for Mean/trap/visit ± SE Yellowjackets: N 9. The procedure:
as §1, §2

Assay [4] relates to vespid wasps (paper wasps, hornets and yellowjackets). The assay is described as follows: Field trapping experiments, repellency stated for vespid wasps as a whole (yellowjackets and paper wasps; summaries). The class given is in vivo, Vespula pensylvanica; Polistes dominulus. The following applies: for activity at doses tested: Experiment 9; for repellency on either yellowjackets or paper wasps or both to the attractant AA/2 MB: Experiments 1-3, late August to early September. The procedure: as §1, §2

[5] abbreviates: Table 10, Experiment 11, attractant AA/2MB alone (row AA/2MB) or plus chemical, 16 days in October.
Where [6] appears, read: Table 9, Experiment 10, attractant AA/2MB alone (row AA/2MB) or plus chemical, 18 days end of September through mid-October.
Where [7] appears, read: Table 8, Experiment 9, attractant AA/2MB alone (row AA/2MB) or plus chemical, 13 days in September.
[8] abbreviates: Table 1, Experiment 1, attractant AA/2MB alone (row AA/2MB) or plus essential oil/chemical in same trap chamber, eight days late August to early September.
The mark [9] stands for this setting: Table 7, Experiment 8, attractant AA/2MB alone (row AA/2MB) or plus chemical, 13 days in September.

On to `COc1ccc(C)cc1` [4-Methylanisole, 4-methylanisole], for which, in assay [1] (setting [5]), the “Mean/trap/visit ± SE Paper wasps” value is given as 0.9 ± 0.5 a wasps/trap/visit. In assay [2] (V. pensylvanica and P. dominulus worker antennae), the “antennal (EAD) response to component of ylang ylang oil” value is “strong and repeatable antennal responses”. Moreover, the “Mean/trap/visit ± SE Yellowjackets” value in assay [3] (setting [5]) is recorded as 10.0 ± 5.0 b wasps/trap/visit. Further, the “repellency to either yellowjackets or paper wasps” value in assay [4] (Experiment 11, AA/2 MB, at 90 mg/day release) is recorded as “did not show significant repellency”.

In the case of `CC(C)=CCC/C(C)=C/CO` [Geraniol, geraniol], the “Mean/trap/visit ± SE Paper wasps” value in assay [1] (setting [6]) turned out to be 2.9 ± 0.9 b wasps/trap/visit. In addition, the “antennal (EAD) response to component of geranium oil” value (shortened to “antennal … of geranium oil”) in assay [2] is “significant and consistent EAD-responses”. Also, the “Mean/trap/visit ± SE Yellowjackets” value in assay [3] (setting [6]) was found to be 21.8 ± 6.0 cd wasps/trap/visit. The “repellency at the dose tested” value in assay [4] (Experiment 10, AA/2 MB) is reported as “not different from the attractant alone”.

`CC(C)=CCCC(C)CCO` (stereo not drawn) [β-Citronellol, β-citronellol]: in assay [1] (setting [7]), the “Mean/trap/visit ± SE Paper wasps” value worked out at 5.1 ± 1.6 b wasps/trap/visit. The “antennal … of geranium oil” value in assay [2] was “significant and consistent EAD-responses”. Also, in assay [3] (setting [7]), the “Mean/trap/visit ± SE Yellowjackets” value is 36.2 ± 6.8 b wasps/trap/visit. Moreover, in assay [4] (AA/2 MB), the “activity at doses tested” value was “inactive”.

Consider `CC1=CC(=O)[C@H]2C[C@@H]1C2(C)C` [(−)-Verbenone, (−)-verbenone], for which the “Mean/trap/visit ± SE Paper wasps” value in assay [1] (setting [7]) is 2.9 ± 0.9 ab wasps/trap/visit. Also, the “Mean/trap/visit ± SE Yellowjackets” value in assay [3] (setting [7]) stood at 18.7 ± 5.9 b wasps/trap/visit. Moreover, the “activity at doses tested” value in assay [4] (AA/2 MB) was “inactive”.

As for Z/E-nepetalactone [ZE-Neptalactone], the “Mean/trap/visit ± SE Paper wasps” value in assay [1] (setting [8]) came out at 11.3 ± 4.5 c wasps/trap/visit. In addition, the “Mean/trap/visit ± SE Yellowjackets” value in assay [3] (setting [8]) was 52.1 ± 16.2 cd wasps/trap/visit. The “repellency on either yellowjackets or paper wasps or both to the attractant AA/2 MB” value in assay [4] is “partially significant repellency”.

As to `COC(=O)c1ccccc1O` [Methyl salicylate, methyl salicylate], in assay [1] (setting [6]), the “Mean/trap/visit ± SE Paper wasps” value is given as 0.9 ± 0.5 a wasps/trap/visit. Further, in assay [2] (V. pensylvanica antennae, FIG. 12), the “antennal (EAD) response to component of wintergreen oil” value was “strong antennal response”. Further, the “Mean/trap/visit ± SE Yellowjackets” value in assay [3] (setting [6]) was found to be 4.7 ± 2.0 ab wasps/trap/visit.

As to `CC1=CCC(C(C)(C)O)CC1` (stereo not drawn) [α-Terpineol, α-terpineol], the “Mean/trap/visit ± SE Paper wasps” value in assay [1] (setting [7]) is on record as 2.2 ± 0.9 ab wasps/trap/visit. The “antennal (EAD) response to component of rosemary oil” value in assay [2] is “significant EAD-responses”. Besides, the “Mean/trap/visit ± SE Yellowjackets” value in assay [3] (setting [7]) is on record as 21.9 ± 5.7 b wasps/trap/visit. For the same molecule, the “activity at doses tested” value in assay [4] (AA/2 MB) was “inactive”.

In the case of `CC(C)=CCC/C(C)=C/COC=O` [Geranyl formate, geranyl formate], the “Mean/trap/visit ± SE Paper wasps” value in assay [1] (setting [9]) came to 5.8 ± 2.7 a wasps/trap/visit. Further, the “antennal … of geranium oil” value in assay [2] was “significant and consistent EAD-responses”. In assay [3] (Experiment 8, AA/2 MB), the “repellency at the doses tested” value was “not significantly repellent”. The “Mean/trap/visit ± SE Yellowjackets” value in assay [3] (setting [9]) is 28.2 ± 7.0 b wasps/trap/visit.

As to `CC1=CCC(O)(C(C)C)CC1` (stereo not drawn) [4-Terpineol, 4-terpineol], in assay [1] (setting [7]), the “Mean/trap/visit ± SE Paper wasps” value stood at 2.0 ± 0.7 ab wasps/trap/visit. The “antennal (EAD) response to component of rosemary oil” value in assay [2] is “significant EAD-responses”. Also, the “Mean/trap/visit ± SE Yellowjackets” value in assay [3] (setting [7]) is listed as 23.3 ± 5.6 b wasps/trap/visit. In addition, in assay [4] (AA/2 MB), the “activity at doses tested” value is “inactive”.

For the molecule E/Z-nepetalactone [EZ-Neptalactone], the “Mean/trap/visit ± SE Paper wasps” value in assay [1] (setting [8]) is 3.2 ± 1.1 bc wasps/trap/visit. Also, the “Mean/trap/visit ± SE Yellowjackets” value in assay [3] (setting [8]) came out at 11.2 ± 3.6 b wasps/trap/visit. For the same molecule, the “repellency on either yellowjackets or paper wasps or both to the attractant AA/2 MB” value in assay [4] is given as “partially significant repellency”.

(Values after US20120107428A1, “REPELLENTS FOR PESTIFEROUS SOCIAL WASPS” (Sterling International Inc., priority 2010, published 2012).)
